# Data taken from patent publication US7622469B2, “2,4-diamino-1,3,5-triazine derivatives” (Hamari Chemicals, Ltd., priority 2002, dated 2009).
# Tests used:
# MRSA 97-115 [1] = experiment: Antibacterial activity test (MIC); type: cell-based, methicillin-resistant Staphylococcus aureus; conditions: Mueller-Hinton Broth, 37° C., 20 to 24 hours
# Method in brief: (§1)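 Broth dilution MIC per Japanese Society of Chemotherapy method, in Mueller-Hinton Broth with inoculum of 10^5/ml from 16–20 h cultures at 37° C. Compound (methanol-dissolved) tested at 100 μg/ml and 2^n-fold (n=−10 to 1) twofold steps; MIC expressed in μg/ml.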
# P. aeruginosa PAO-1 [2] = experiment: Bactericidal activity test (MBC, phenol coefficient measuring method); type: cell-based
# Description: (§2) As a test bacterium, the same bacteria species as those of the antibacterial activity test were used; as a medium to be used, a SCD medium (manufactured by Eiken Chemical Co., Ltd.) was used for pre-culture medium; and a heart infusion bouillon medium (manufactured by Eiken Chemical Co., Ltd.) was used as a medium for growing a live bacterium in a test solution after bactericidal treatment. One platinum loop of a test bacterium was inoculated into 20 ml of a medium, and static culture was carried out at 37° C. for 18 to 20 hours, and the cells were adjusted with a sterilized physiological saline to 1×10^7/ml, which was used as a test bacterium solution.
# (§3) Then, a solution of each compound in methanol was subjected to ½ stepwise dilution with sterilized water, each 5 ml was dispensed into a test tube, 0.5 ml of the previously prepared test bacterium solution was added thereto, and the mixture was blended well. After 1 minute, 3 minutes and 5 minutes has passed, 5 μl of the test solution was collected and inoculated into 2 ml of a heart infusion bouillon medium, this was cultured at 37° C. for 40 to 48 hours, and the presence or absence of growth of a bacterium was determined. A test was performed three times, a minimum concentration at which growth of a bacterium was not recognized two or more times was adopted as a minimal bactericidal concentration (MBC value).
# (§4) Numerical values in Tables represent MBC expressed in μg/ml unit.
# E. coli NIHJ JC-2 [3] = experiment: as above; type: cell-based
# Description: as §2, §3, §4
# S. aureus 209PJC [4] = experiment: as above; type: cell-based
# Description: as §2, §3, §4
# MRSA 97-115 [5] = experiment: as above; type: cell-based, methicillin-resistant Staphylococcus aureus
# Description: as §2, §3, §4
# P. aeruginosa PAO-1 [6] = experiment: Antibacterial activity test (MIC); type: cell-based; conditions: Mueller-Hinton Broth, 37° C., 20 to 24 hours
# Method in brief: as §1
# E. coli NIHJ JC-2 [7] = experiment: Antibacterial activity test (MIC); type: cell-based; conditions: Mueller-Hinton Broth, 37° C., 20 to 24 hours
# Method in brief: as §1
# S. aureus 209PJC [8] = experiment: Antibacterial activity test (MIC); type: cell-based; conditions: Mueller-Hinton Broth, 37° C., 20 to 24 hours
# Method in brief: as §1
Structure (SMILES),minimal inhibitory concentration (MIC) (MRSA 97-115 [1]) [µg/mL],minimal inhibitory concentration (MIC) (P. aeruginosa PAO-1 [6]) [µg/mL],minimal inhibitory concentration (MIC) (E. coli NIHJ JC-2 [7]) [µg/mL],minimal inhibitory concentration (MIC) (S. aureus 209PJC [8]) [µg/mL],minimal bactericidal concentration (MBC) (P. aeruginosa PAO-1 [2]; 1 min) [µg/mL],minimal bactericidal concentration (MBC) (P. aeruginosa PAO-1 [2]; 3 min) [µg/mL],minimal bactericidal concentration (MBC) (P. aeruginosa PAO-1 [2]; 5 min) [µg/mL],minimal bactericidal concentration (MBC) (E. coli NIHJ JC-2 [3]; 1 min) [µg/mL],minimal bactericidal concentration (MBC) (E. coli NIHJ JC-2 [3]; 3 min) [µg/mL],minimal bactericidal concentration (MBC) (E. coli NIHJ JC-2 [3]; 5 min) [µg/mL],minimal bactericidal concentration (MBC) (S. aureus 209PJC [4]; 1 min) [µg/mL],minimal bactericidal concentration (MBC) (S. aureus 209PJC [4]; 3 min) [µg/mL],minimal bactericidal concentration (MBC) (S. aureus 209PJC [4]; 5 min) [µg/mL],minimal bactericidal concentration (MBC) (MRSA 97-115 [5]; 1 min) [µg/mL],minimal bactericidal concentration (MBC) (MRSA 97-115 [5]; 3 min) [µg/mL],minimal bactericidal concentration (MBC) (MRSA 97-115 [5]; 5 min) [µg/mL]
CC(=O)O.CCCCCCCCCNC1=NC(C)(C)N=C(NCCc2ccccc2)N1 [compound 56],0.8,12.5,12.5,0.4,12.5,3.1,1.6,12.5,3.1,3.1,25,12.5,6.3,25,12.5,6.3
CCCCCCCCNC1=NC(C)(C)N=C(NCc2ccc(C)cc2)N1 [compound 37],1.6,25,12.5,0.8,3.1,3.1,3.1,12.5,6.3,3.1,12.5,6.3,6.3,25,25,12.5
CCCCCCCCCCCCC1N=C(N)NC(NCCc2ccc(OC)cc2)=N1.Cl (racemic) [15(1)],1.6,50,25,0.4,6.3,3.1,3.1,6.3,3.1,1.6,12.5,3.1,3.1,25,12.5,6.3
Br.CCCCCCCCCNC1=NC(C)(C)N=C(NCc2ccccc2)N1 [compound 49],0.8,25,12.5,0.4,12.5,3.1,3.1,12.5,6.3,3.1,12.5,6.3,6.3,25,12.5,12.5
CC(=O)O.CCCCCCCCNC1=NC(C)(C)N=C(NCC2CCCCC2)N1 [compound 65],0.8,50,25,0.8,3.1,1.6,1.6,3.1,1.6,1.6,12.5,3.1,3.1,25,12.5,12.5

# Second part, led by results:
minimal inhibitory concentration (MIC) (MRSA 97-115 [1]) [µg/mL],minimal inhibitory concentration (MIC) (P. aeruginosa PAO-1 [6]) [µg/mL],minimal inhibitory concentration (MIC) (E. coli NIHJ JC-2 [7]) [µg/mL],minimal inhibitory concentration (MIC) (S. aureus 209PJC [8]) [µg/mL],Structure (SMILES),minimal bactericidal concentration (MBC) (P. aeruginosa PAO-1 [2]; 1 min) [µg/mL],minimal bactericidal concentration (MBC) (P. aeruginosa PAO-1 [2]; 3 min) [µg/mL],minimal bactericidal concentration (MBC) (P. aeruginosa PAO-1 [2]; 5 min) [µg/mL],minimal bactericidal concentration (MBC) (E. coli NIHJ JC-2 [3]; 1 min) [µg/mL],minimal bactericidal concentration (MBC) (E. coli NIHJ JC-2 [3]; 3 min) [µg/mL],minimal bactericidal concentration (MBC) (E. coli NIHJ JC-2 [3]; 5 min) [µg/mL],minimal bactericidal concentration (MBC) (S. aureus 209PJC [4]; 1 min) [µg/mL],minimal bactericidal concentration (MBC) (S. aureus 209PJC [4]; 3 min) [µg/mL],minimal bactericidal concentration (MBC) (S. aureus 209PJC [4]; 5 min) [µg/mL],minimal bactericidal concentration (MBC) (MRSA 97-115 [5]; 1 min) [µg/mL],minimal bactericidal concentration (MBC) (MRSA 97-115 [5]; 3 min) [µg/mL],minimal bactericidal concentration (MBC) (MRSA 97-115 [5]; 5 min) [µg/mL]
0.8,50,12.5,0.8,CC(=O)O.CCCCCCCNC1=NC(C)(C)N=C(NCCCCCCC)N1 [compound 69],3.1,1.6,1.6,6.3,3.1,3.1,6.3,6.3,3.1,25,25,12.5
1.6,25,25,0.8,CCCCCCCCCCCCCCNC1=NC(C)(C)N=C(N)N1.Cl [compound 72],3.1,1.6,1.6,6.3,3.1,3.1,3.1,1.6,1.6,25,12.5,12.5
